Usually melting point stands for the temperature of the solid-liquid transition. Usually IC50 stands for the concentration needed to halve the response being measured.

Where only a bound is given, the exact number is not on record here.

Here are results for one compound from patent US8969565B2, “Imidazo[1,2-b]pyridazine-based compounds, compositions comprising them, and methods of their use” (Lexicon Pharmaceuticals, Inc., priority 2012, dated 2015).

Data set [1] concerns the target T1, AAK1 (Homo sapiens, UniProt Q2M2I8).
T1 construct: HA; expressed in transfected cells; host or cells: HEK293F
In words: HEK281 cell-based assay (phospho-mu2 Western blot in transfected HEK293F cells). The conditions noted are these: 3 hours incubation, read-out: CBA IC50. The method in brief:
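After 3 hours at 37° C. with compound (five 3-fold-spaced concentrations, DMEM+0.5% FBS), transiently transfected HEK293F cells expressing full-length human AAK1 and Flag-tagged mu2 were lysed. mu2 phosphorylation was read by anti-phospho-mu2 immunoblot, normalized against total mu2 by anti-Flag blot.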
(In western blotting, separated proteins are transferred to a membrane and probed.)

The target of data set [2] is T1, AAK1. In words: P81 filter plate assay. In kind it is biochemical. The settings on record: full-length human AAK1, Mu2 substrate.

T1 sequence (Q2M2I8 1-863 isoform Q2M2I8-2): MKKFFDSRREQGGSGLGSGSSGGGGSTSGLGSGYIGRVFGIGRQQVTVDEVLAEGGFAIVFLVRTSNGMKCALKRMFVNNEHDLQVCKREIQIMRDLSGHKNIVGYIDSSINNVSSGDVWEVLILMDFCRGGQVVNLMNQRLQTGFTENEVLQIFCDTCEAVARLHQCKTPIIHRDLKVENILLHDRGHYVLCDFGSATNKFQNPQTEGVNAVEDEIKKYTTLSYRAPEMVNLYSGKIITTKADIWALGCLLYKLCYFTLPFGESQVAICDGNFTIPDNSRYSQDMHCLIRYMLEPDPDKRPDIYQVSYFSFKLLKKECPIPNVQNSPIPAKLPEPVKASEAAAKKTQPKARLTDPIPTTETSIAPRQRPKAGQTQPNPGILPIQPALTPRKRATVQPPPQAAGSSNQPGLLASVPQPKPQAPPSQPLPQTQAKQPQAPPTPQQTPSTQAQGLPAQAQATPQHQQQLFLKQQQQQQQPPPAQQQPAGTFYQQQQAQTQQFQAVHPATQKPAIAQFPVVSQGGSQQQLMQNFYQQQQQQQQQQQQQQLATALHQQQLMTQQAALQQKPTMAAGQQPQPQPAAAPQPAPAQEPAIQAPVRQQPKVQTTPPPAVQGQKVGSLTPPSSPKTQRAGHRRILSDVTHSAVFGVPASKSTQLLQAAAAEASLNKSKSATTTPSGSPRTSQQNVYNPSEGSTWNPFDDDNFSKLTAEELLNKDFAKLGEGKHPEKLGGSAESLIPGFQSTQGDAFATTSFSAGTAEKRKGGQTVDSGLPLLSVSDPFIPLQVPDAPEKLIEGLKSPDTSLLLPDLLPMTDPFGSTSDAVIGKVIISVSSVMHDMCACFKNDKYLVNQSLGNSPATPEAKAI

Consider `CC(C)(C)OC(=O)N1CCN(c2ccc3ncc(-c4ccccc4)n3n2)CC1` [4-(3-Phenyl-imidazo[1,2-b]pyridazin-6-yl)-piperazine-1-carboxylic acid tert-butyl ester], for which the melting point is 101 to 103 °C (dec.). In addition, the IC50 in data set [1] is ≤ 0.1 µM. In data set [2], the IC50 was ≤ 0.01 µM.
